In ChEMBL document CHEMBL1201862, “PubChem BioAssay data set” (2004):
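Following 48 hours of exposure in 96-well plates, responses at five concentrations were used to interpolate endpoints linearly. GI50 = concentration required for 50% inhibition of growth.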 The source made the active and inactive calls. Rule as the data show it: active = GI50 up to about 1.1 µM and inactive = higher.

Legend:
Experiment in all cases: NCI-60 cell line screen, 48 h
Hs-578T = system: Hs-578T
EKVX = system: EKVX
OVCAR-3 = system: OVCAR-3
SF-268 = system: SF-268
SK-OV-3 = system: SK-OV-3
CCRF-CEM = system: CCRF-CEM
SR = system: SR
ACHN = system: ACHN
U-251 = system: U-251
SK-MEL-28 = system: SK-MEL-28
KM12 = system: KM12
TK-10 = system: TK-10
HCT-116 = system: HCT-116
UACC-62 = system: UACC-62
NCI-H23 = system: NCI-H23
HL-60 = system: HL-60
MCF7 = system: MCF7
SF-295 = system: SF-295
CAKI-1 = system: CAKI-1
NCI-H226 = system: NCI-H226

| SMILES | GI50 (Hs-578T) | GI50 (EKVX) | GI50 (OVCAR-3) | GI50 (SF-268) | GI50 (SK-OV-3) | GI50 (CCRF-CEM) | GI50 (SR) | GI50 (ACHN) | GI50 (U-251) | GI50 (SK-MEL-28) | GI50 (KM12) | GI50 (TK-10) | GI50 (HCT-116) | GI50 (UACC-62) | GI50 (NCI-H23) | GI50 (HL-60) | GI50 (MCF7) | GI50 (SF-295) | GI50 (CAKI-1) | GI50 (NCI-H226) |
| --- | --- | --- | --- | --- | --- | --- | --- | --- | --- | --- | --- | --- | --- | --- | --- | --- | --- | --- | --- | --- |
| COC(=O)CCCCC/C(=C\C(=O)C(Cl)(Cl)Cl)OC | 26.4 µM (inactive) | 24.7 µM (inactive) | 26.6 µM (inactive) | 24.4 µM (inactive) | 61.4 µM (inactive) | 15.4 µM (inactive) | 18.1 µM (inactive) | 39.7 µM (inactive) | 26.4 µM (inactive) | 32.9 µM (inactive) | 26.4 µM (inactive) | 29.4 µM (inactive) | 20.2 µM (inactive) | 36 µM (inactive) | 31.8 µM (inactive) | 22.3 µM (inactive) | 23.3 µM (inactive) | 43.3 µM (inactive) | 30.8 µM (inactive) |  |
| CSC1=C(C(=O)Nc2ccc(C)cc2)C(N)=NC1=O | > 100 µM (inactive) | > 100 µM (inactive) |  | > 100 µM (inactive) | > 100 µM (inactive) | > 100 µM (inactive) | 81.5 µM (inactive) | > 100 µM (inactive) | > 100 µM (inactive) | > 100 µM (inactive) | > 100 µM (inactive) | > 100 µM (inactive) | > 100 µM (inactive) | > 100 µM (inactive) | > 100 µM (inactive) | > 100 µM (inactive) | > 100 µM (inactive) | > 100 µM (inactive) | > 100 µM (inactive) | > 100 µM (inactive) |
| C/C(=N/NC(=S)N1CCCCCC1)c1cccc(/C(C)=N\NC(=S)N2CCCCCC2)n1 | 5.2 µM (inactive) | 3.13 µM (inactive) | 1.01 µM (active) | 2.51 µM (inactive) | 2.43 µM (inactive) | 2.67 µM (inactive) | 2.38 µM (inactive) | 1.48 µM (inactive) | 2.32 µM (inactive) | 2.3 µM (inactive) | 1.63 µM (inactive) | 1.77 µM (inactive) | 1.66 µM (inactive) | 2.38 µM (inactive) | 2.31 µM (inactive) | 1.91 µM (inactive) | 1.57 µM (inactive) | 1.89 µM (inactive) |  | 1.75 µM (inactive) |
| Cc1ccc2c(c1)CC1(Cc3cccc(C)c3C1=O)C2=O (stereo unspecified) | 96.8 µM (inactive) | > 100 µM (inactive) | > 100 µM (inactive) | > 100 µM (inactive) | 88.5 µM (inactive) | 70.1 µM (inactive) | 79.8 µM (inactive) | > 100 µM (inactive) | > 100 µM (inactive) | > 100 µM (inactive) |  | > 100 µM (inactive) | 64 µM (inactive) | 48.4 µM (inactive) | > 100 µM (inactive) | 38.3 µM (inactive) | > 10 µM (inactive) | > 100 µM (inactive) |  | > 100 µM (inactive) |
| CC1(C)OC2[C@@H](CO[C@@]3([C@H]4OC(C)(C)O[C@@H]4CO)OC(C)(C)O[C@@H]23)O1 (stereo partly specified) | > 100 µM (inactive) | > 100 µM (inactive) | > 100 µM (inactive) | > 100 µM (inactive) | > 100 µM (inactive) | > 100 µM (inactive) | > 100 µM (inactive) | > 100 µM (inactive) | > 100 µM (inactive) | > 100 µM (inactive) | > 100 µM (inactive) | > 100 µM (inactive) | > 100 µM (inactive) | > 100 µM (inactive) | > 100 µM (inactive) | > 100 µM (inactive) | > 100 µM (inactive) | > 100 µM (inactive) |  | > 100 µM (inactive) |
| Cc1cc(C)n(CN(Cn2nc(C)cc2C)c2ccc(N(Cn3nc(C)cc3C)Cn3nc(C)cc3C)cc2)n1 | 18.2 µM (inactive) | 26.9 µM (inactive) | 25.5 µM (inactive) | 24.8 µM (inactive) | 25.9 µM (inactive) | 14.4 µM (inactive) | 30.9 µM (inactive) | 17.3 µM (inactive) | 27.9 µM (inactive) | 18.7 µM (inactive) | 24.2 µM (inactive) | 29.9 µM (inactive) | 17.5 µM (inactive) | 24.2 µM (inactive) | 21.2 µM (inactive) | 30.5 µM (inactive) | 20.3 µM (inactive) | 30.8 µM (inactive) | 26.1 µM (inactive) |  |
| O=C(O)c1ccc(C(O)(c2ccccc2)c2ccccc2)cc1 | > 100 µM (inactive) | > 100 µM (inactive) | > 100 µM (inactive) | > 100 µM (inactive) | > 100 µM (inactive) | > 100 µM (inactive) | > 100 µM (inactive) | > 100 µM (inactive) | > 100 µM (inactive) | > 100 µM (inactive) | > 100 µM (inactive) | > 100 µM (inactive) | > 100 µM (inactive) | > 100 µM (inactive) | > 100 µM (inactive) | > 100 µM (inactive) | > 100 µM (inactive) | > 100 µM (inactive) | > 100 µM (inactive) |  |
| CC1(CF)SCc2nc3ccccc3n21 (stereo unspecified) | > 100 µM (inactive) | > 100 µM (inactive) | > 100 µM (inactive) | > 100 µM (inactive) | > 100 µM (inactive) |  | > 100 µM (inactive) | > 100 µM (inactive) | > 100 µM (inactive) | > 100 µM (inactive) | > 100 µM (inactive) | > 100 µM (inactive) | > 100 µM (inactive) | > 100 µM (inactive) | > 100 µM (inactive) | > 100 µM (inactive) | > 100 µM (inactive) | > 100 µM (inactive) | > 100 µM (inactive) | > 100 µM (inactive) |
| CN(C)c1nc2oc(-c3ccccc3)c(-c3ccccc3)c2c2nncn12 | > 100 µM (inactive) | > 100 µM (inactive) |  | > 100 µM (inactive) | > 100 µM (inactive) | > 100 µM (inactive) | > 100 µM (inactive) | > 100 µM (inactive) | > 100 µM (inactive) | > 100 µM (inactive) | > 100 µM (inactive) | > 100 µM (inactive) | > 100 µM (inactive) | > 100 µM (inactive) | > 100 µM (inactive) |  | > 100 µM (inactive) | > 100 µM (inactive) | > 100 µM (inactive) | > 100 µM (inactive) |
| C1=N/CCNCCNCC/N=C/c2ccccc2OCc2cccc(n2)COc2ccccc2/1 | 55.3 µM (inactive) | > 100 µM (inactive) | 30.1 µM (inactive) | 47.2 µM (inactive) | > 100 µM (inactive) | 16.2 µM (inactive) | 19.5 µM (inactive) | 28.6 µM (inactive) | 26.7 µM (inactive) | > 100 µM (inactive) | 48.5 µM (inactive) |  | 61 µM (inactive) | 79.1 µM (inactive) | 86.3 µM (inactive) | 28 µM (inactive) | 21.2 µM (inactive) | 26.4 µM (inactive) | > 100 µM (inactive) | 66.8 µM (inactive) |
| c1ccc2c(c1)ncn2C1CCCCO1 (stereo unspecified) | > 100 µM (inactive) | > 100 µM (inactive) | > 100 µM (inactive) | > 100 µM (inactive) | > 100 µM (inactive) | > 100 µM (inactive) | > 100 µM (inactive) | > 100 µM (inactive) | > 100 µM (inactive) | > 100 µM (inactive) | > 100 µM (inactive) | > 100 µM (inactive) | > 100 µM (inactive) | > 100 µM (inactive) | > 100 µM (inactive) | > 100 µM (inactive) | > 100 µM (inactive) | > 100 µM (inactive) |  | > 100 µM (inactive) |
| CC(C)(CO)CNc1nc(N)nc(Cl)c1C=O | 22.9 µM (inactive) | 45.9 µM (inactive) | 25.6 µM (inactive) | 14 µM (inactive) |  | 20.6 µM (inactive) | 17.5 µM (inactive) | 48.8 µM (inactive) | 32.8 µM (inactive) | 24.4 µM (inactive) | 90.4 µM (inactive) | 46.9 µM (inactive) | 20 µM (inactive) | 12.5 µM (inactive) | 40.4 µM (inactive) | 3.9 µM (inactive) | 50.4 µM (inactive) | 42.4 µM (inactive) | 11.9 µM (inactive) | 50.8 µM (inactive) |
| Cc1c2c(n(CC(c3ccccc3)c3ccccc3)c1C)NN=C(C#N)S2(=O)=O | 43.1 µM (inactive) | > 100 µM (inactive) | > 100 µM (inactive) | 64.1 µM (inactive) | > 100 µM (inactive) |  | 35.2 µM (inactive) | > 100 µM (inactive) | > 100 µM (inactive) | > 100 µM (inactive) | 66.2 µM (inactive) | > 100 µM (inactive) | 74 µM (inactive) | 97.7 µM (inactive) | > 100 µM (inactive) |  | > 100 µM (inactive) | > 100 µM (inactive) | > 100 µM (inactive) | > 100 µM (inactive) |
| COc1nc(=O)n(C2CC(N=[N+]=[N-])C(CO)O2)cc1C (stereo unspecified) | > 100 µM (inactive) | > 100 µM (inactive) | > 100 µM (inactive) | > 100 µM (inactive) |  | > 100 µM (inactive) | > 100 µM (inactive) | > 100 µM (inactive) | > 100 µM (inactive) | > 100 µM (inactive) | > 100 µM (inactive) | > 100 µM (inactive) | > 100 µM (inactive) | > 100 µM (inactive) | > 100 µM (inactive) | > 100 µM (inactive) | > 100 µM (inactive) | > 100 µM (inactive) |  | > 100 µM (inactive) |
| Oc1ccc(-c2nc3ccccc3s2)cc1 | 37.7 µM (inactive) | 21.5 µM (inactive) | 34.5 µM (inactive) | 31.5 µM (inactive) | 32.1 µM (inactive) | 26.2 µM (inactive) | 32.7 µM (inactive) | 45.8 µM (inactive) | 42.4 µM (inactive) | 53.3 µM (inactive) | 21.1 µM (inactive) |  | 22.4 µM (inactive) | 32.4 µM (inactive) | 25.2 µM (inactive) | 30.3 µM (inactive) | 33.6 µM (inactive) | 37.5 µM (inactive) | 29.2 µM (inactive) | 43.3 µM (inactive) |
